Consider 15 compounds from patent US20110098296A1, “Thiazole And Oxazole Kinase Inhibitors” (priority 2007, published 2011).

Test [1] has as its target T1, EGFR (Homo sapiens, UniProt P00533).
T1 construct: made in house; host or cells: baculovirus expression system
As to the kind of experiment: EGFR substrate phosphorylation assay (HTRF). The format is biochemical. The method in brief: (§1)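 Baculovirus-expressed kinase (0.8 nM EGFR or 10 nM ErbB2 in enzyme mix) with Peptide C 0.8 μM and ATP 20 μM (substrate-mix levels), MOPS pH 7.5, MnCl2; 90 min, 20 °C, HTRF anti-phosphotyrosine. Method A adds 1 h enzyme–compound preincubation; B none. pIC50, final compound 0.00027–47.6 μM.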

The target of test [2] is T2, ErbB2 (Homo sapiens, UniProt P04626).
T2 construct: made in house; host or cells: baculovirus expression system
T2 sequence (P04626 23-1255): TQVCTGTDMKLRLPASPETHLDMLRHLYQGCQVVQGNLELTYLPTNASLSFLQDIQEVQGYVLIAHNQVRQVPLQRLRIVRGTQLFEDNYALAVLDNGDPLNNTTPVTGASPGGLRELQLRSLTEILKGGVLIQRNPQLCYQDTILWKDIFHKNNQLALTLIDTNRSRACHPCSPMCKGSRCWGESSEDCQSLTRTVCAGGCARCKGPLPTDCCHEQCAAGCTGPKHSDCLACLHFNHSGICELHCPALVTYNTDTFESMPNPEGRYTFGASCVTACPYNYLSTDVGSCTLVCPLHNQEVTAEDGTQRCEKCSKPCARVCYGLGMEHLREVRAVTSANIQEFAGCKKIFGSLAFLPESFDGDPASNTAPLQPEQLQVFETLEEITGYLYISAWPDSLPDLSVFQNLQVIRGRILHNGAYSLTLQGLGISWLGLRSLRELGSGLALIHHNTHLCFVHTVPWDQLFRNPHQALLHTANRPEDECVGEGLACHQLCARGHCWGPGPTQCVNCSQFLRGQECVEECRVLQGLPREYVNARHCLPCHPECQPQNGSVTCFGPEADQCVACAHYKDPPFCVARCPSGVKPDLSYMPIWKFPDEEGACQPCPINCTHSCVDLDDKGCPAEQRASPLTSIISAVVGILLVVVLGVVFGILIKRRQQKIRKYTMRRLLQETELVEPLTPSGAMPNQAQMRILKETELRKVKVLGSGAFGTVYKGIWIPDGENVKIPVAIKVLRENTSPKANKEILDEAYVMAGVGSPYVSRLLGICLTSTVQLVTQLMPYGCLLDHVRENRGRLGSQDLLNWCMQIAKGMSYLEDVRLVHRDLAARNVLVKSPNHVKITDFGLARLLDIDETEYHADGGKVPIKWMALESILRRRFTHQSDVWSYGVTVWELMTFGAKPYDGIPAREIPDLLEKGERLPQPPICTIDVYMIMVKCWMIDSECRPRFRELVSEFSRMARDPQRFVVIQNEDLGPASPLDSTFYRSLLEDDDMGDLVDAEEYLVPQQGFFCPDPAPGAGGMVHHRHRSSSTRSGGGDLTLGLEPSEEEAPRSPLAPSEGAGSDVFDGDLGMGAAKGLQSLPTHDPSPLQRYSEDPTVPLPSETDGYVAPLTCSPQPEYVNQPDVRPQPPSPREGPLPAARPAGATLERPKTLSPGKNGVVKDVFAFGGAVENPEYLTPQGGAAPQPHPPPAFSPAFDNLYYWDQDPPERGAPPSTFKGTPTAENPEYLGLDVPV
Kind of test: ErbB-2 substrate phosphorylation assay (HTRF). The format is biochemical. Put shortly:
as §1
(TR-FRET usually uses a lanthanide donor and a delayed reading to cut background.)

In test [3] the test system is HN5 tumor cells. Kind of test: Method A: Methylene Blue Growth Inhibition Assay, HN5. As to conditions: Homo sapiens, 72 h, 3 days. The format is cell-based. On the procedure:
(§2) Human breast (BT474) and head and neck (HN5) tumor cells were cultured in low glucose DMEM (Life Technologies 12320-032) containing 10% fetal bovine serum (FBS). Human colon tumor cells (Colo205) were cultured in DMEM (Invitrogen, 10564) containing 10% FBS. The SV40 transformed human mammary epithelial cell line HB4a was transfected with either human H-ras cDNA (HB4a r4.2) or the human c-ErbB2 cDNA (HB4a c5.2). The HB4a clones were cultured in RPMI containing 10% FBS, insulin (5 g/mL), hydrocortisone (5 g/mL), supplemented with the selection agent hygromycin B (50 g/mL). All lines were grown in a humidified incubator at 37° C. in 95% air, 5% CO2. Cells were harvested using trypsin/EDTA, counted using a haemocytometer, and plated in 100 μL of the appropriate media, at the following densities, in a 96-well tissue culture plate (Falcon 3075): BT474 10,000 cells/well, HN5 3,000 cells/well. The next day, compounds were diluted in DMEM containing […] gentamicin, at twice the final required concentration, from 10 mM stock solutions in DMSO. 100 μl/well of these dilutions were added to the 100 μL of media currently on the cell plates. Medium containing 0.6% DMSO was added to control wells. Compounds diluted in DMEM were added to all cell lines. The final concentration of DMSO in all wells was 0.3%. Cells were returned to the incubator (37° C., […]) for 3 days. Medium was then removed by aspiration. Cell biomass was estimated by staining cells with 90 μL/well methylene blue (Sigma M9140, 0.5% in 1:1 EtOH:H2O), and incubation at room temperature for at least 30 minutes. Stain was removed, and the plates rinsed by immersion in deionized H2O and air-dried. To release stain from the cells 100 μL of solubilization solution were added (1% N-lauroyl sarcosine, sodium salt, Sigma L5125, in PBS), and plates were shaken gently for about 30 minutes. Optical density at 620 nm was measured on a microplate reader. Percent inhibition of cell growth was calculated relative to vehicle-treated control wells. Concentration of compound that inhibits 50% of control cell growth (IC50) was interpolated using nonlinear regression (Levenberg-Marquardt) and the equation,
(§3) y=Vmax*(1−(x/(K+x)))+Y2, where “K” was equal to the IC50.

Test [4] relates to BT474 tumor cells. As to the kind of experiment: Method A: Methylene Blue Growth Inhibition Assay, BT474. The format is cell-based. As to conditions: Homo sapiens, BT-474, 72 h, 3 days. On the procedure:
as §2, §3

The subject of test [5] is Colo205 tumor cells. Kind of test: Method A: Methylene Blue Growth Inhibition Assay, Colo205. The format is cell-based. As to conditions: Homo sapiens, COLO 205, 72 h, 3 days. The procedure:
as §2, §3

[6] abbreviates: Method (A): Enzyme Mix incubated with compound at 20° C. for 1 hr, reaction started by adding Substrate Mix.
Setting [7] is: Method (B): Substrate Mix added to compound first, reaction started by adding Enzyme Mix.

The IC50 is the point on the concentration scale where inhibition reaches its midpoint.

T1 sequence (P00533 25-1210): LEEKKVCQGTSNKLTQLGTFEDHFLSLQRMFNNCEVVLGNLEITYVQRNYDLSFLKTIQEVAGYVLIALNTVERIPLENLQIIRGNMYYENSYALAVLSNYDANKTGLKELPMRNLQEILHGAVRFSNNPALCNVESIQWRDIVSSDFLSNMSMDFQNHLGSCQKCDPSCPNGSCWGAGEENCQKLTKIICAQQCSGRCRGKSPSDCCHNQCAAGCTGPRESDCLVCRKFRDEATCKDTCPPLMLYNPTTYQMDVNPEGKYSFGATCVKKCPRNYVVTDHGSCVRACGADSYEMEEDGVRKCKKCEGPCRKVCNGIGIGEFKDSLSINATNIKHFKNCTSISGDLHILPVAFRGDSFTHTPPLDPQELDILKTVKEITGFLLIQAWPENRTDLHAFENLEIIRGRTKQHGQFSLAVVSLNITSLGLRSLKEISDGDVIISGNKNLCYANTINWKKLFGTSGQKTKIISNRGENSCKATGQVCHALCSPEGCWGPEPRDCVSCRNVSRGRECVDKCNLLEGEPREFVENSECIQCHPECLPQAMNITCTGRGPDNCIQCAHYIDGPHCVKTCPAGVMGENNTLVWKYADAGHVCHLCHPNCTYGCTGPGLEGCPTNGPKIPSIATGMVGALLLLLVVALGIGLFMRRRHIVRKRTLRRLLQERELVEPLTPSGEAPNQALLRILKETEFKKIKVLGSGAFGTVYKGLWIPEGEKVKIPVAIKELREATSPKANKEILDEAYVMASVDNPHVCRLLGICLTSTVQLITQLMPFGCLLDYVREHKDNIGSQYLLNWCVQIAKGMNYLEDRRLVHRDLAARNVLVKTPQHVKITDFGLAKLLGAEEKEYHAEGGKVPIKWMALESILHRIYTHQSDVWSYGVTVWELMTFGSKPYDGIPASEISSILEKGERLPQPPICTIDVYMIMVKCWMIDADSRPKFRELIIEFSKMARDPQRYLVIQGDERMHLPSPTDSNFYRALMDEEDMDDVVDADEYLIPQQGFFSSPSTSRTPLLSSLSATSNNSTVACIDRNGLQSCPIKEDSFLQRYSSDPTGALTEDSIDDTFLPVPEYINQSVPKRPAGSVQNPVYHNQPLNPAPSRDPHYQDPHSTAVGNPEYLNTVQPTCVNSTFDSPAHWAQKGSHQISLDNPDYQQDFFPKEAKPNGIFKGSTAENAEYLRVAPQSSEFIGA

In the case of `Nc1nc(-c2cccc(NC(=O)c3c(F)cccc3F)c2)c(-c2ccnc(Nc3ccc4c(c3)CNCC4)n2)s1` [Example 21, N-(3-{2-Amino-5-[2-(1,2,3,4-tetrahydro-7-isoquinolinylamino)-4-pyrimidinyl]-1,3-thiazol-4-yl}phenyl)-2,6-difluorobenzamide], the concentration for half-maximal inhibition (IC50) in test [1] (setting [6]) was under 100 nM; in test [2] (setting [6]), under 100 nM; in test [3] it was under 100 nM; in test [4], under 100 nM; in test [5], 100 to 1000 nM.
Regarding `COc1ccc(Nc2nccc(-c3sc(N)nc3-c3cccc(NC(=O)c4cc(F)ccc4F)c3)n2)cc1F` [Example 50, N-{3-[2-Amino-5-(2-{[3-fluoro-4-(methyloxy)phenyl]amino}-4-pyrimidinyl)-1,3-thiazol-4-yl]phenyl}-2,5-difluorobenzamide], the IC50 in test [1] (setting [6]) was under 100 nM; in test [2] (setting [6]), under 100 nM; in test [3], under 100 nM; in test [4] it was 100 to 1000 nM; in test [5], over 1000 nM.
Consider `CNc1nc(-c2cccc(NC(=O)c3cc(F)ccc3F)c2)c(-c2ccnc(Nc3ccc(OC)c(F)c3)n2)s1` [Example 51, 2,5-Difluoro-N-{3-[5-(2-{[3-fluoro-4-(methyloxy)phenyl]amino}-4-pyrimidinyl)-2-(methylamino)-1,3-thiazol-4-yl]phenyl}benzamide], for which the 50% inhibitory concentration (IC50) in test [1] (setting [6]) was under 100 nM; in test [2] (setting [6]) it was under 100 nM; in test [3], over 1000 nM; in test [4], 100 to 1000 nM; in test [5], over 1000 nM.
Regarding `COCCNc1nc(-c2cccc(NC(=O)c3cc(F)ccc3F)c2)c(-c2ccnc(Nc3ccc(OC)c(F)c3)n2)s1` [Example 52, 2,5-Difluoro-N-[3-(5-(2-{[3-fluoro-4-(methyloxy)phenyl]amino}-4-pyrimidinyl)-2-{[2-(methyloxy)ethyl]amino}-1,3-thiazol-4-yl)phenyl]benzamide], the IC50 in test [1] (setting [6]) was under 100 nM; in test [2] (setting [6]), under 100 nM; in test [3], 100 to 1000 nM; in test [4], under 100 nM; in test [5], 100 to 1000 nM.
For the compound `COc1ccc(Nc2nccc(-c3sc(NCCN4CCOCC4)nc3-c3cccc(NC(=O)c4cc(F)ccc4F)c3)n2)cc1F` [Example 53, 2,5-Difluoro-N-[3-(5-(2-{[3-fluoro-4-(methyloxy)phenyl]amino}-4-pyrimidinyl)-2-{[2-(4-morpholinyl)ethyl]amino}-1,3-thiazol-4-yl)phenyl]benzamide], the IC50 is under 100 nM in test [1] (setting [6]); under 100 nM in test [2] (setting [6]); under 100 nM in test [3]; under 100 nM in test [4]; 100 to 1000 nM in test [5].
In the case of `Nc1nc(-c2cccc(NC(=O)c3cc(F)ccc3F)c2)c(-c2ccnc(Nc3cccc(-c4cnco4)c3)n2)s1` [Example 54], the IC50 in test [1] (setting [6]) is under 100 nM; in test [2] (setting [6]), under 100 nM; in test [3], under 100 nM; in test [4] it was under 100 nM; in test [5] it was over 1000 nM.
For the compound `Nc1nc(-c2cccc(NC(=O)c3cc(F)ccc3F)c2)c(-c2ccnc(Nc3ccc4c(c3)CNCC4)n2)s1` [Example 57], the 50% inhibitory concentration (IC50) was under 100 nM in test [1] (setting [6]); under 100 nM in test [2] (setting [6]); under 100 nM in test [3]; under 100 nM in test [4]; 100 to 1000 nM in test [5].
In the case of `COCCOc1ccc(Nc2nccc(-c3sc(N)nc3-c3cccc(NC(=O)c4cc(F)ccc4F)c3)n2)cc1F` [Example 58, N-[3-(2-Amino-5-{2-[(3-fluoro-4-{[2-(methyloxy)ethy]oxy}phenyl)amino]-4-pyrimidinyl}-1,3-thiazol-4-yl)phenyl]-2,5-difluorobenzamide], the IC50 in test [1] (setting [6]) is under 100 nM; in test [2] (setting [6]) it was under 100 nM; in test [3], under 100 nM; in test [4], under 100 nM; in test [5] it was 100 to 1000 nM.
As for `CN(C)CCCNc1ccc(Nc2nccc(-c3sc(N)nc3-c3cccc(NC(=O)C4CCCCC4)c3)n2)cc1F` [Example 60], the half-maximal inhibitory concentration (IC50) in test [1] (setting [6]) was under 100 nM; in test [2] (setting [6]), under 100 nM; in test [3], under 100 nM; in test [4], 100 to 1000 nM; in test [5], 100 to 1000 nM.
For `CN(C)CCOc1ccc(Nc2nccc(-c3sc(N)nc3-c3cccc(NC(=O)C4CCCCC4)c3)n2)cc1Cl` [Example 61], the IC50 in test [1] (setting [6]) is under 100 nM; in test [2] (setting [6]), under 100 nM; in test [3], under 100 nM; in test [4], 100 to 1000 nM; in test [5], 100 to 1000 nM.
On to `Nc1nc(-c2cccc(NC(=O)C3CCCCC3)c2)c(-c2ccnc(Nc3cccc(-c4cnco4)c3)n2)s1` [Example 62, N-{3-[2-Amino-5-(2-{[3-(1,3-oxazol-5-yl)phenyl]amino}-4-pyrimidinyl)-1,3-thiazol-4-yl]phenyl}cyclohexanecarboxamide], for which the IC50 in test [1] (setting [6]) was under 100 nM; in test [2] (setting [6]), under 100 nM; in test [3], under 100 nM; in test [4] it was 100 to 1000 nM; in test [5], 100 to 1000 nM.
Regarding `CN(C)CCCNc1ccc(Nc2nccc(-c3sc(N)nc3-c3cccc(NC(=O)c4cccn4C)c3)n2)cc1F` [Example 65, N-[3-(2-Amino-5-{2-[(4-{[3-(dimethylamino)propyl]amino}-3-fluorophenyl)amino]-4-pyrimidinyl}-1,3-thiazol-4-yl)phenyl]-1-methyl-1H-pyrrole-2-carboxamide], the half-maximal inhibitory concentration (IC50) was under 100 nM in test [1] (setting [6]); under 100 nM in test [2] (setting [6]); under 100 nM in test [3]; under 100 nM in test [4]; 100 to 1000 nM in test [5].
For the compound `CN(C)CCOc1ccc(Nc2nccc(-c3sc(N)nc3-c3cccc(OCc4ccccc4)c3)n2)cc1Cl` [Example 70, 4-(2-Amino-4-{3-[(phenylmethyl)oxy]phenyl}-1,3-thiazol-5-yl)-N-(3-chloro-4-{[2-(dimethylamino)ethyl]oxy}phenyl)-2-pyrimidinamine], the IC50 was under 100 nM in test [1] (setting [6]); under 100 nM in test [2] (setting [6]); 100 to 1000 nM in test [3]; 100 to 1000 nM in test [4]; 100 to 1000 nM in test [5].
In the case of `Nc1nc(-c2cccc(OCc3ccccc3)c2)c(-c2ccnc(Nc3ccc4c(c3)CNCC4)n2)s1` [Example 71, N-[4-(2-Amino-4-{3-[(phenylmethyl)oxy]phenyl}-1,3-thiazol-5-yl)-2-pyrimidinyl]-1,2,3,4-tetrahydro-7-isoquinolinamine], the 50% inhibitory concentration (IC50) is under 100 nM in test [1] (setting [6]); under 100 nM in test [2] (setting [6]); 100 to 1000 nM in test [3]; 100 to 1000 nM in test [4]; over 1000 nM in test [5].
Turning to `COc1ccc(Nc2nccc(-c3scnc3-c3cccc(NC(=O)c4c(F)cccc4F)c3)n2)cc1F` [Example 87, 2,6-Difluoro-N-{3-[5-(2-{[3-fluoro-4-(methyloxy)phenyl]amino}-4-pyrimidinyl)-1,3-thiazol-4-yl]phenyl}benzamide], the half-inhibitory concentration (IC50) is 100 to 1000 nM in test [1] (setting [7]); 100 to 1000 nM in test [2] (setting [7]); under 100 nM in test [3]; 100 to 1000 nM in test [4]; over 1000 nM in test [5].
